“And” between values parts separate entries of the source, which are not always exact repeats. Equal values may be shown once.
Tested on: OVCAR-8 complex spheroid, growth inhibition
Experiment: Anticancer human tumor OVCAR-8 cell line growth inhibition [Asc];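 also: spheroids exposed to agents for 7 days before readout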;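 as to viability, T/C: percent viability relative to DMSO vehicle wells taken as 100%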
Details: for viability, T/C: stronger effect = lower value
Description: Multicellular complex tumor spheroid response to apoptosis pathway targeting inhibitors Alrizomadlin, Pelcitoclax, and Dasminapant in combination with a variety of drugs and investigational agents in selected tumor cell lines
The MDM2 inhibitor alrizomadlin, the Bcl-2/Bcl-xL inhibitor pelcitoclax, and the IAPs inhibitor dasminapant were evaluated both individually and in combination with standard of care and investigational anticancer small molecules within a complex spheroid model of solid tumors. . Complex spheroids include a stromal component modeled by human endothelial cells (HUVEC) and fibroblasts modeled by human mesenchymal stem cells (MSCs). The concentration ranges selected for each drug and investigational agent were based upon clinically achievable concentrations if the clinical Cmax of the agent was known.
Compounds. The drugs and investigational agents: alrizomadlin (APG-115; NSC831270), pelcitoclax (APG-1252; NSC835773), dasminapant (APG-1387;NSC834197), TAK-243 (NSC785004), copanlisib (NSC809693), olaparib (NSC753686), talazoparib (NSC767125), cobimetinib (NSC 768068), eltanexor (KPT-8602, NSC 794443), abemaciclib (NSC 768073), sotorasib (NSC818433), adagrasib (NSC 831453), MRTX-1133 (NSC 836407), Iadademestat (ORY1001, NSC 806812), and RMC-4630 (NSC839698), were obtained from the NCI Developmental Therapeutics Program Chemical Repository. The FDA-approved anticancer drug set is available from the Developmental Therapeutics Program at https://dtp.cancer.gov/organization/dscb/obtaining/available plates.htm. […] The stock solutions were prepared in dimethyl sulfoxide (DMSO, Sigma-Aldrich, St. Louis, MO, cat. D2650) at 800-fold the tested concentration and stored at -70 degrees C prior to their use. All drugs and investigational agents were tested over a range starting from a high concentration at or near the clinical Cmax and decreasing in half-log increments. If the clinical Cmax for an agent had not been determined, the highest concentration tested was 10 microM.
The patient-derived cancer (PDC) cell lines include five colon adenocarcinomas: 186277-243-T-J2-PDC, 616215-338-R-J1-PDC, 439559-082-T-J2-PDC, 463943-066-T-J2-PDC, and 519858-162-T-J1-PDC; three pancreatic carcinomas: 323965-272-R-J2-PDC, 521955-158-R6-J3-PDC, and 521955-158-R2-J5-PDC; two uterine sarcomas: 327498-152-R-J2-PDC and 993429-296-R-J1-PDC; two rhabdomyosarcomas: 755483-174-R-J1-PDC and 772245-204-R-J1-PDC; two soft tissue sarcomas: 126254-015-R-J1-PDC and 494315-158-R-J1-PDC; two malignant fibrous histiocytomas: 317291-083-R-J1-PDC and 596521-263-R-J1-PDC; two breast carcinomas: 171881-019-R-J1-PDC and 885512-296-R-J2-PDC; and one ovarian carcinoma: 6556581-035-R-J-PDC were obtained from the NCI PDMR, (https://pdmr.cancer.gov). The established cell lines HSSY-2 synovial sarcoma (RRID:CVCL 8719), SYO-1 synovial sarcoma (RRID:CVCL_7146), MPNST malignant peripheral neural sheath tumor were obtained from the Sloan Kettering Institute. The following established cell lines were purchased from the American Type Culture Collection (ATCC, Manassas, VA), Sor the received from the NCI repository:, PANC-1 pancreatic carcinoma (CRL-1469, RRID:CVCL_0480), OVCAR-5 ovarian carcinoma (RRID:CVCL_1628), OVCAR-8 ovarian carcinoma (RRID:CVCL_1629), , MCF-7 breast carcinoma (CRL-12584, RRID:CVCL_0031), MDA-MB-231 breast carcinoma (CRL-12532, RRID:CVCL_0062), NCI-H1876 small cell lung carcinoma (CRL-5902, RRID:CVCL_1503), NCI-H510A small cell lung carcinoma (HTB-184, RRID:CVCL_1565), NCI-H1417 (CRL-5869, RRID:CVCL_1469), and NCI-H196 small cell lung carcinoma (CRL-5823, RRID:CVCL_1509). Dr. Peter Houghton (Greehey Children's Cancer Research Institute, University of Texas Health Science Center, San Antonio, TX) provided Rh-18 rhabdomyosarcoma (RRID:CVCL_1659). Pooled donor human umbilical vein endothelial cells (HUVEC, Lonza, cat. CC-2519) and human mesenchymal stem cells (hMSC, Lonza, cat. PT-2501) were purchased from Lonza (Walkersville, MD).
Cell Culture. […]

[1] = compound alone, run of 11/07/2022

| SMILES | viability, T/C (compound 0.0316 µM) | viability, T/C (compound 0.1 µM) | viability, T/C (compound 0.316 µM) | viability, T/C (compound 1 µM) | viability, T/C (compound 3.16 µM) | IC50 (curve of compound) | viability, T/C (compound 0.00316 µM) | viability, T/C (compound 0.01 µM) | also measured |
| --- | --- | --- | --- | --- | --- | --- | --- | --- | --- |
| C#Cc1c(F)ccc2cc(O)cc(-c3ncc4c(N5CC6CCC(C5)N6)nc(OCC56CCCN5CC(F)C6)nc4c3F)c12 (stereo unspecified) | 110% and 90.4% and 96.5% | 95.6% and 80.1% and 97.5% | 101% and 110% and 87% | 110% and 94.2% and 95% | 93.7% and 83.9% and 94.7% | > 10000 nM |  |  | viability, T/C (compound 10 µM): 116% and 98.9% and 85.9% |
| C=C(F)C(=O)N1CCN(c2nc(OCC3CCCN3C)nc3c2CCN(c2cccc4cccc(Cl)c24)C3)CC1CC#N (stereo unspecified) | 107% (2×) and 96.3% | 113% and 98.5% and 93.6% | 109% and 84.2% and 106% | 101% and 105% and 104% | 25.7% and 39.4% and 37.9% | 2190 nM and 2550 nM and 2560 nM |  |  | viability, T/C (compound 10 µM): 0.33% and 0.7% and 1.79% |
| C=CC(=O)N1CCN(c2nc(=O)n(-c3c(C)ccnc3C(C)C)c3nc(-c4c(O)cccc4F)c(F)cc23)C(C)C1 (stereo unspecified) | 106% and 97.9% and 94.2% | 102% and 109% and 80.9% | 84.7% and 95.3% and 101% | 98.6% and 95.9% and 99.3% | 86.1% and 102% and 101% | > 10000 nM |  |  | viability, T/C (compound 10 µM): 108% and 99.7% and 96.6% |
| CCN1C(C(=O)NC23CCC(C(=O)O)(CC2)CC3)C(c2cccc(Cl)c2F)C2(C(=O)Nc3cc(Cl)ccc32)C12CCCCC2 (stereo unspecified) |  |  |  |  |  | > 3000 nM |  |  | viability, T/C (compound 0.03 µM): 93.4% [middle of 9 runs]; viability, T/C (compound 0.949 µM): 100% [middle of 9 runs]; viability, T/C (compound 3 µM): 104% [middle of 9 runs]; IC50 [1]: > 3000 nM |
| CCN1CCN(Cc2ccc(Nc3ncc(F)c(-c4cc(F)c5nc(C)n(C(C)C)c5c4)n3)nc2)CC1 | 93.1% and 93.5% and 107% | 104% and 84.9% and 103% | 98.6% and 100% and 98.5% | 125% and 105% and 129% |  | > 1000 nM | 81.5% and 87.7% and 87.9% | 101% and 93.5% and 90.3% |  |
| CNC(C)C(=O)NC1CN(S(=O)(=O)c2cccc(S(=O)(=O)N3CCC4CCC(C(=O)NC(c5ccccc5)c5ccccc5)N4C(=O)C(NC(=O)C(C)NC)C3)c2)CCC2CCC(C(=O)NC(c3ccccc3)c3ccccc3)N2C1=O (stereo unspecified) |  |  |  |  |  | > 1000 nM |  |  |  |
| COc1c(OCCCN2CCOCC2)ccc2c3n(c(=NC(=O)c4cnc(N)nc4)nc12)CCN3 | 120% and 123% and 130% | 167% and 133% and 157% | 134% and 141% and 143% | 77% and 89.5% and 94.5% |  | > 1000 nM | 98.2% and 94.8% and 108% | 111% and 110% and 109% |  |
| Cc1c(S(C)(=O)=O)c(-c2cc(F)cc(N3CCN(c4ccc(NS(=O)(=O)c5ccc(NC(CCN6CCC(C(=O)OCCCP(=O)(O)O)CC6)CSc6ccccc6)c(S(=O)(=O)C(F)(F)F)c5)cc4)CC3)c2)c(-c2ccc(Cl)cc2)n1C(C)C (stereo unspecified) | 91.2% [middle of 7 runs] | 94% [middle of 7 runs] |  | 98.1% [middle of 7 runs] | 104% [middle of 7 runs] |  |  |  | IC50 [1]: > 10000 nM |
| Cc1nc(N2CCC3(CC2)COC(C)C3N)c(CO)nc1Sc1ccnc(N)c1Cl (stereo unspecified) |  |  |  |  |  | > 3000 nM |  |  | viability, T/C (compound 0.00949 µM): 111% and 101% and 103%; viability, T/C (compound 0.03 µM): 121% and 112% and 102%; viability, T/C (compound 0.0949 µM): 195% and 147% and 149%; viability, T/C (compound 0.3 µM): 239% and 173% and 192%; viability, T/C (compound 0.949 µM): 261% and 212% and 243%; viability, T/C (compound 3 µM): 261% and 201% and 223% |
| Cn1ncnc1[C@H]1c2n[nH]c(=O)c3cc(F)cc(c23)N[C@@H]1c1ccc(F)cc1 | 115% and 117% and 105% | 132% and 102% and 125% |  |  |  | > 100 nM | 95.5% and 93.6% and 106% | 114% and 102% and 109% | viability, T/C (compound 0.000316 µM): 92.4% and 93.5% and 99.5%; viability, T/C (compound 0.001 µM): 94.9% and 97.8% and 88.9% |
| NC(=O)C(=Cn1cnc(-c2cc(C(F)(F)F)cc(C(F)(F)F)c2)n1)c1cncnc1 |  |  |  |  |  | > 300 nM and 54.1 nM |  |  | viability, T/C (compound 0.000949 µM): 100% and 101% and 69.2%; viability, T/C (compound 0.003 µM): 90% and 81.8% and 98.6%; viability, T/C (compound 0.00949 µM): 99.8% and 91.2% and 111%; viability, T/C (compound 0.03 µM): 95.4% and 109% and 92.8% |
| NC1CCC(NC2CC2c2ccccc2)CC1 (stereo unspecified) | 113% and 98.7% and 95% | 83% and 91.6% and 115% |  |  |  | > 100 nM | 83.1% and 85.2% and 104% | 104% and 81.5% and 119% | viability, T/C (compound 0.000316 µM): 94.7% and 96.7% and 105%; viability, T/C (compound 0.001 µM): 87.7% and 82.6% and 99.8% |
| O=C(c1cc(Cc2n[nH]c(=O)c3ccccc23)ccc1F)N1CCN(C(=O)C2CC2)CC1 | 105% and 97.4% and 98.4% | 103% (2×) and 97.7% | 99% and 82.4% and 107% | 117% and 95.4% and 121% | 134% and 104% and 110% | > 10000 nM |  |  | viability, T/C (compound 10 µM): 116% and 122% and 95.5% |
| O=C(c1ccc(F)c(F)c1Nc1ccc(I)cc1F)N1CC(O)([C@@H]2CCCCN2)C1 | 138% and 165% and 133% | 153% and 165% and 190% | 210% and 216% and 228% | 107% and 80.8% and 86.8% |  | > 1000 nM | 95.4% and 98.1% and 96.1% | 122% and 101% and 111% |  |

— PubChem BioAssay AID1963437 (Molecular Pharmacology Branch, DTP, NCI, 2024)
